Test results: patent publication US20240130942A1, “Composition for Treating Hair and Skin” (DR. KURT WOLFF GMBH & CO. KG, priority 2020, published 2024)
Entries after “also recorded” stand apart in the source; their conditions may differ.

Assays:
[1] = system: HaCaT cells; assay: Wound healing assay, cell migration; assay type: cell-based, human; conditions: images after 16 h, 20 h and 24 h, different DMG concentrations, compared to controls without DMG; FIG. 3
Procedure: (§1) 1. As part of an in vitro study, the effect of Na-dimethylglycinate was examined in a pH range from […] in a cell culture model with human horn-forming keratinocyte cells. For this purpose, HaCaT cells were cultured for 1, 3, 5, and 7 days in DMEM medium (including fetal calf serum and an antibiotic-antimycotic mix) and, among other things, the viability, proliferation and migration of the cells were determined using suitable measurement methods, and the expression of the growth factors relevant for cell growth was measured.
A so-called wound healing assay was carried out to measure migration, based on previously published studies in T. Kawabata, T. Otsuka, K. Fujita, G. Sakai, R. Matsushima-Nishiwaki, O. Kozawa, H. Tokuda, International Journal of Molecular Medicine 2018, 42, 3149-3156. The principle is based on measuring the migration of cells to a cultivation surface that has not yet been colonized over time. […]
The wound was created at time 0 h and images were taken after 16 h, 20 h and 24 h of cultivation. Based on the image recordings, the cultivation surface, which was not yet colonized with cells, was determined using the ImageJ software. The measured values are normalized to the point in time 0 h (maximum size of the wound) and given in %.

[2] = system: Human epidermal keratinocyte cells (HaCaT); assay: MTT assay, cell viability of HaCaT cells; assay type: cell-based; conditions: after 48 h and 72 h of cultivation, versus control without DMG, FIG. 1
Procedure: as §1
For this measurement, a so-called MTT assay was used to determine cellular metabolic activity as an indicator of cell viability and cytotoxicity. This colorimetric assay is based on the reduction of a yellow tetrazolium salt (3-(4,5-dimethylthiazol-2-yl)-2,5-diphenyltetrazolium bromide or MTT) to purple formazan crystals by metabolically active cells.
Human epidermal keratinocyte cells (HaCaT) were seeded in a 96-well plate at a cell density of 5,000 cells/well and cultured in medium (DMEM with 10% FBS, 1% penicillin-streptomycin, 0.5% fungizone). […]
Cell viability was determined using the MTT assay. The absorption was measured in quadruplicate and normalized to the control at 24 hours. […]

[3] = system: VEGF; assay: Gene expression of VEGF by qRT-PCR in HaCaT cells; assay type: cell-based, human; conditions: after 24 hours of cultivation, normalized to GAPDH, versus control without DMG, FIG. 4
Procedure: VEGF (Vascular Endothelial Growth Factor) promotes the growth and formation of new blood and lymphatic vessels. Gene expression was measured using a standard method known as quantitative real-time PCR (qRT-PCR).
Human epidermal keratinocyte cells (HaCaT) were seeded in a 6-well plate at a cell density of 140,000 cells/well and cultured in medium (DMEM with 10% FBS, 1% penicillin-streptomycin, 0.5% fungizone) at 37° C. and 5% by volume CO2. The next day, the cell culture medium without (control) or with the active substance concentrations already present in each case was changed, and the cells were harvested after 24 h. Gene expression was measured using qRT-PCR based on studies previously published in B. V. Diaz, M.-C. Lenoir, A. Ladoux, C. Frelin, M. Demarchez, S. Michel, Journal of Biological Chemistry 2000, 275, 642-650.
The relative gene expression determined by qRT-PCR (triple determination, normalized to the respective gene expression of a constitutively expressed gene; GAPDH—glyceraldehyde-3-phosphate dehydrogenase) of VEGF is shown. Shown is the mean value with standard deviation.

[4] = system: Human epidermal keratinocyte cells (HaCaT); assay: CyQUANT assay, proliferation of HaCaT cells; assay type: cell-based; conditions: after 48 h and 72 h of cultivation, versus control without DMG, FIG. 2
Procedure: as §1
A so-called CyQUANT assay was carried out to measure the proliferation. In this fluorescence-based assay, the fluorescent dye used binds to DNA (deoxyribonucleic acid), with the content of cellular DNA being a direct measure of the number of cells in a sample.
Human epidermal keratinocyte cells (HaCaT) were seeded in a 96-well plate at a cell density of 5,000 cells/well and cultured in medium (DMEM with 10% FBS, 1% penicillin-streptomycin, 0.5% fungizone). The next day and after a further 24 h as well as 48 h and 72 h of cultivation at 37° C. and 5% by volume CO2, the cell culture medium without (control) or with the active ingredient concentrations already present was changed. […]
Cell proliferation was determined using the CyQUANT assay. The fluorescence was measured in triplicate and normalized to the control at 24 hours. […]

With `CN(C)CC(=O)[O-].[Na+]` [DMG, sodium dimethylglycinate] the “migration or wound closure” value [1] was “significantly faster”, the “cell viability (MTT assay, absorption normalized to the control at 24 hours)” value [2] was “clear increase” and the “relative gene expression of VEGF” value [3] was “significant increase; also recorded: significantly increased”. For the same compound, the “cell proliferation (CyQUANT assay, fluorescence normalized to the control at 24 hours)” value [4] was “clear increase”.
